US6376497B1, “Antifungal azole derivatives having a fluorinated vinyl group and process for preparing same” (Korea Research Institute of Chemical Technology, priority 1999, dated 2002)

Tests used:
Assay in all cases: In vitro antifungal activity, microbroth dilution MIC
Format in all cases: cell-based
[1] = tested on: Trichophyton mentagrophytes A. 9129; conditions: T. mentagrophytes A. 9129, RPMI-1640, 35° C., 4 to 48 hours
Protocol: (§1) In vitro antifungal activities of the inventive antifungal compounds were evaluated using the test strains shown in Table VIII by the following microbroth dilution method which is a modified version of the procedure recommended by National Committee for Clinical Laboratory Standards(see National Committee for Clinical Laboratory Standards, 1992, Reference methods for broth dilution antifungal susceptibility testing of yeasts, Proposed standard M27-P, National Committee for clinical laboratory standards, Villanova, Pa; and National Committee for Clinical Laboratory Standards, 1995, Reference methods for broth dilution antifungal susceptibility testing of yeasts. Tentative standard M27-T, National Committee for clinical laboratory standards, Villanova, Pa).
(§2) Sabourad Dextrose Agar(Difco) was used as a culture medium, and RPMI-1640 broth(Sigma. Co. w/L-glutamine, wo/NaHCO3)(0.165 M MOPS, pH 7.0), as a dilution medium.
(§3) Each of the test strains were subcultured in Sabourad Dextrose Agar medium twice and a stain sample was taken from prominent colonies and suspended in sterile physiological saline solution in a cap tube. The turbidity of the suspension was adjusted to that of the Mcfarland 0.5 standard sample(approximately 10^6 CFU/ml). Then the suspension was diluted 500-fold with sterile RPMI-1640 liquid medium to 2×10^3 CFU/ml.
(§4) Each of the test compounds(the compounds obtained in Examples 1 to 150 and comparative compounds, i.e., fluconazole(FCZ) and itraconazole (ICZ)), was dissolved in DMSO to give a stock solution having a concentration of 4000 μg/ml and the stock solution was successively diluted to obtain test solutions having test compound concentrations of 200, 100, 50, 25, 12.5, 6.25, 3.13, 1.56, 0.78, 0.39, 0.20 and 0.10 μg/ml, respectively.
(§5) 0.1 ml portion of the test solutions were added to the wells of a sterile 96 well plate. Then, 0.1 ml portion of each of the test strain solutions were added successively to the wells and the plate was incubated at 35° C. for 4 to 48 hours.
(§6) Minimal inhibitory concentration(MIC) of each compound was defined as the concentration of the test compound where no growth of the strain could be observed.

[2] = tested on: Cryptococcus neoformans A. 34144; conditions: Cry. neoformans A. 34144, RPMI-1640, 35° C., 4 to 48 hours
Protocol: as §1, §2, §3, §4, §5, §6

[3] = tested on: Candida albicans C1-2; conditions: C. albicans C1-2, RPMI-1640, 35° C., 4 to 48 hours
Protocol: as §1, §2, §3, §4, §5, §6

[4] = tested on: Cryptococcus neoformans IFM. 40092; conditions: Cry. neoformans IFM. 40092, RPMI-1640, 35° C., 4 to 48 hours
Protocol: as §1, §2, §3, §4, §5, §6

[5] = tested on: Candida krusei K. 11655; conditions: C. krusei K. 11655, RPMI-1640, 35° C., 4 to 48 hours
Protocol: as §1, §2, §3, §4, §5, §6

[6] = tested on: Torulopsis glabrata B. 16205; conditions: T. glabrata B. 16205, RPMI-1640, 35° C., 4 to 48 hours
Protocol: as §1, §2, §3, §4, §5, §6

[7] = tested on: Aspergillus furnigatus B. 19119; conditions: A furnigatus B. 19119, RPMI-1640, 35° C., 4 to 48 hours
Protocol: as §1, §2, §3, §4, §5, §6

[8] = tested on: Candida albicans A. 10231; conditions: C. albicans A. 10231, RPMI-1640, 35° C., 4 to 48 hours
Protocol: as §1, §2, §3, §4, §5, §6

[9] = tested on: Cryptococcus neoformans B. 42419; conditions: Cry. neoformans B. 42419, RPMI-1640, 35° C., 4 to 48 hours
Protocol: as §1, §2, §3, §4, §5, §6

[10] = tested on: Candida albicans IFO. 1385; conditions: C. albicans IFO. 1385, RPMI-1640, 35° C., 4 to 48 hours
Protocol: as §1, §2, §3, §4, §5, §6

[11] = tested on: Candida pseudotropicalis K. 11658; conditions: C. pseudotropicalis K. 11658, RPMI-1640, 35° C., 4 to 48 hours
Protocol: as §1, §2, §3, §4, §5, §6

[12] = tested on: Aspergillus niger A. 16404; conditions: A. niger A. 16404, RPMI-1640, 35° C., 4 to 48 hours
Protocol: as §1, §2, §3, §4, §5, §6

[13] = tested on: Candida tropicalis A. 13803; conditions: C. tropicalis A. 13803, RPMI-1640, 35° C., 4 to 48 hours
Protocol: as §1, §2, §3, §4, §5, §6

[14] = tested on: Trichophyton mentagrophytes B. 32663; conditions: T. mentagrophytes B. 32663, RPMI-1640, 35° C., 4 to 48 hours
Protocol: as §1, §2, §3, §4, §5, §6

[15] = tested on: Candida parapsitosis A. 7330; conditions: C. parapsitosis A. 7330, RPMI-1640, 35° C., 4 to 48 hours
Protocol: as §1, §2, §3, §4, §5, §6

Structure (SMILES)	Minimal inhibitory concentration (MIC) [1] [µg/mL]	Minimal inhibitory concentration (MIC) [2] [µg/mL]	Minimal inhibitory concentration (MIC) [3] [µg/mL]	Minimal inhibitory concentration (MIC) [4] [µg/mL]	Minimal inhibitory concentration (MIC) [5] [µg/mL]	Minimal inhibitory concentration (MIC) [6] [µg/mL]	Minimal inhibitory concentration (MIC) [7] [µg/mL]	Minimal inhibitory concentration (MIC) [8] [µg/mL]	Minimal inhibitory concentration (MIC) [9] [µg/mL]	Minimal inhibitory concentration (MIC) [10] [µg/mL]	Minimal inhibitory concentration (MIC) [11] [µg/mL]	Minimal inhibitory concentration (MIC) [12] [µg/mL]	Minimal inhibitory concentration (MIC) [13] [µg/mL]	Minimal inhibitory concentration (MIC) [14] [µg/mL]	Minimal inhibitory concentration (MIC) [15] [µg/mL]
Cc1cccc(C=C(F)OCC2COC(Cn3ccnc3)(c3ccc(F)cc3F)O2)c1 (mixture of isomers) [Ex. 37]	50.0	3.13	25.0	0.78	>100	6.25	>100	25.0	6.25	3.13	>100	>100	>100	25.0	>100
Cc1ccc(C=C(F)OCC2COC(Cn3ccnc3)(c3ccc(F)cc3F)O2)cc1 (mixture of isomers) [Ex. 38]	6.25	1.56	12.5	0.20	25.0	6.25	12.5	12.5	1.56	0.39	12.5	50.0	25.0	1.56	12.5
CCc1ccc(C=C(F)OCC2COC(Cn3ccnc3)(c3ccc(F)cc3F)O2)cc1 (mixture of isomers) [Ex. 39]	6.25	1.56	12.5	0.20	25.0	6.25	12.5	12.5	1.56	0.39	12.5	50.0	25.0	1.56	12.5
Cc1ccc(C=C(F)OCC2COC(Cn3ccnc3)(c3ccc(F)cc3F)O2)cc1C (mixture of isomers) [Ex. 40]	6.25	1.56	12.5	0.20	25.0	6.25	12.5	12.5	1.56	0.78	25.0	25.0	25.0	1.56	25.0
